# Experimental data: patent US8541670B2, “Compositions and methods for inhibiting tumor cell growth” (priority 2007, dated 2013)
# Where no end group is shown, it is not given here.
# Experiments:
# p70S6K = target: T1, p70S6K (Homo sapiens, UniProt P23443); assay: In vitro kinase assay p70S6K; format: biochemical; details: ten times higher concentration than 0.1 μM
# T1 construct: endogenous in cells
# Method: As a specific substrate, the phosphorylation level of GSK-3[…] at Ser-9 was also evaluated. […] The decrease was specific to the AKT phosphorylation site on GSK-3[…] at Ser-9, since a change in the phosphorylation level of GSK-3[…] at Tyr-216 or GSK-3[…] at Tyr-279 was not observed. Moreover, the in vivo reduction of the phosphorylation of AKT substrates was more obvious at the injection site, since a significant change in the phosphorylation of AKT substrates in the frontal cortex or cerebellum between the two hemispheres was not observed. […] To test the specificity/selectivity of ZaTa as the inhibitor of AKT1 versus the other major kinases, a series of in vitro kinase assays was performed at IC50 for AKT1 and at ten times higher concentrations. A panel of the following 32 kinases was first tested in vitro using the active form of each kinase and a specific substrate: AKT2, AKT3, PKA, PKC[…], PKC, PI3K[…], PI3K[…], PI3K, SGK, PAK2, PAK3, SAPK2/p38, Abl, CaMKII, CDK1/cyclinB, CDK5/p35, CK1, CK2, CSK, GSK3[…], GSK3[…], JNK1[…]1, MAPK1, p70S6K, PDGFR[…], PDGFR[…], PDK1, PKG1[…], TrkB, JAK2, JAK3, and Syk. […] However, at ten times higher concentration, ZaTa inhibited AKT2 (63%), PI3K[…] (72%), p70S6K (64%), SGK (73%), PAK3 (83%), JAK3 (79%), TrkB (84%), and Abl (42%). […]
# N2a cells = assay: MTT cell proliferation assay; format: cell-based
# Method: In histogram series 2, treatments were removed after 24 hours and cells were incubated for another 24 hours without treatment. […] Mitochondrial activity (reflecting cellular growth and viability) in the presence of ZaTa and ZaTa variants (ZaTa T10D, ZaTa T8D, ZaTa T14R, and ZaTa Y17T) was evaluated by measuring the optical density (“OD”) at 490 nm on a plate reader. ZaTa T10D refers to a ZaTa polypeptide variant in which the Threonine (T) at position 10 of SEQ ID NO: 60 is substituted by an Aspartic Acid (D). ZaTa T8D refers to a ZaTa polypeptide variant in which the Threonine (T) at position 8 of SEQ ID NO: 60 is substituted by an Aspartic Acid (D). ZaTa T14R refers to a ZaTa polypeptide variant in which the Threonine (T) at position 14 of SEQ ID NO: 60 is substituted by an Arginine (R). ZaTa Y17T refers to a ZaTa polypeptide variant in which the Tyrosine (Y) at position 17 of SEQ ID NO: 60 is substituted by an Threonine (T).
# AKT affects a network that positively regulates G1/S cell cycle progression through several mechanisms that involve the expression and subcellular localization of the CDK inhibitor p27^Kip1 (Blain and Massague (2002) Nat. Med. 8:1076-1078; Liang, et al. (2002) supra; Shin, et al. (2002) supra; Viglietto, et al. (2002) supra). Based on these studies, the effect of ZaTa peptide on cell proliferation was assessed. […] Capturing live images of cultured N2a cells in the presence of different concentrations of the ZaTa peptide confirmed an obvious reduction in the number of dividing cells.
# Based on the importance of the C-terminal arm of ZaTa for its inhibitory action on AKT, it was determined whether the free hydroxyl groups on residues Thr-8, Thr-10 (equivalent to Thr-197 in full-length PKAc), Thr-14 and Tyr-17 were important for the biological activity of this peptide. Mutants of ZaTa peptide were synthesized by replacing Thr-8 or Thr-10 residues with Asp (ZaTa^T8D and ZaTa^T10D, respectively) as an amino acid with a negatively charged side chain. Mutants of ZaTa with the hydrophilic positively charged amino acid Arg at either position Thr-14 or Tyr-17 (ZaTa^T14R and ZaTa^Y17R, respectively) were also synthesized. […] The inhibitory effect of ZaTa peptide on cell proliferation was reversible, to a large extent, after the removal of ZaTa treatment (FIG. 3, histogram series 2).
# Cells (5×10^3) were incubated in 96-well plates in the presence of different concentrations of the ZaTa peptide, control peptide or DMSO as vehicle. Media was removed at different time intervals and replaced with media containing MTT (5 mg/mL), and incubated for one hour at 37° C. […] The activity of the mitochondria, reflecting cellular growth and viability, was evaluated by measuring the optical density at 490 nm on a plate reader.
# T1 sequence (P23443 whole entry): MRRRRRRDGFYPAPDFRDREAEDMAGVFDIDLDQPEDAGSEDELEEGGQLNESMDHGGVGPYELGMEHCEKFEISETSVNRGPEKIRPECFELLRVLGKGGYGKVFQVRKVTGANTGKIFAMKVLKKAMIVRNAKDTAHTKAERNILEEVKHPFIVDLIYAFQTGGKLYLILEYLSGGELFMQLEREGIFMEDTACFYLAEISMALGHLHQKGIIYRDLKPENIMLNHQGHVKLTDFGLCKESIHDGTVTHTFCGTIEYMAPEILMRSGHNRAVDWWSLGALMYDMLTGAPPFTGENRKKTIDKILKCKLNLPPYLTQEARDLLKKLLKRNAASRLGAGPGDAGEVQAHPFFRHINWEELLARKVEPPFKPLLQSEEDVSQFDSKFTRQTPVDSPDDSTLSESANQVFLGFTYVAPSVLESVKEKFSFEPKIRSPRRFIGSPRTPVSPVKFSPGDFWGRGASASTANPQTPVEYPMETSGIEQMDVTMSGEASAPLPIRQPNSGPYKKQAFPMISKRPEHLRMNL
sequence,measurement,setting,value
AKRVKGRTWTLCGTPEY [ZaTa],inhibition of p70S6K,p70S6K,64%
same,dose causing significant decrease in the number of live cells (as low as),N2a cells,2 µM
same,number of live cells 24 hours after removal of treatment versus DMSO vehicle,"N2a cells; 10 μM, 24 hours treatment then 24 hours without",no significant differences
same,"number of live cells, MTT",N2a cells; different concentrations,dose-dependent decrease in the number of live cells
